Here are results for 17 molecules from ChEMBL document CHEMBL1130006, “Antimalarial activity of new dihydroartemisinin derivatives. 7. 4-(p-substituted phenyl)-4(R or S)-[10(alpha or beta)-dihydroartemisininoxy]butyric acids” (J Med Chem, 1997).

The test system of assay [1] is Plasmodium falciparum. As to the kind of experiment: In vitro inhibitory concentration against Plasmodium falciparum W2 Indochina. The format is functional, organism-based.
Assay [2] deals with Plasmodium falciparum. As to the kind of experiment: In vitro inhibitory concentration against Plasmodium falciparum D6 (Sierra Leone). The format is functional, organism-based.
Assay [3] relates to Mus musculus. As to the kind of experiment: T/C is life span of treated mice/control at a compound dose of 64 (mg/kg). The format is functional.
Assay [4] is filed under the species Mus musculus. As to the kind of experiment: Dose that causes 50% suppression of Plasmodium berghei parasitaemia in the treated mice (Mus musculus) compared to untreated controls. The format is functional.
In assay [5] the test system is Mus musculus. Briefly: T/C is life span of treated mice/control at a compound dose of 4 (mg/kg). The format is functional.
Assay [6] has as its system Mus musculus. Briefly: T/C is life span of treated mice/control at a compound dose of 16 (mg/kg). The format is functional.
The species entered for assay [7] is Mus musculus. Briefly: Dose that causes 90% suppression of Plasmodium berghei parasitaemia in the treated mice (Mus musculus) compared to untreated controls. The format is functional.
Assay [8] deals with Mus musculus. As to the kind of experiment: T/C is life span of treated mice/control at a compound dose of 16,(mg/kg). The format is functional.

≈ marks a conversion by molar mass, not a printed value.

For orientation: IC50 means the concentration needed to halve the response being measured. The low end stands for greater potency, the high end for weaker potency. `COC(=O)CC[C@@H](O[C@H]1O[C@@H]2O[C@@]3(C)CC[C@H]4[C@H](C)CCC([C@H]1C)[C@@]24OO3)c1ccc(Cl)cc1` (stereo not given in full): the IC50 in the assay with Plasmodium falciparum [1] turned out to be 0.656 ng/mL (≈ 1.33 nM); in the assay on Plasmodium falciparum [2] it was 0.391 ng/mL (≈ 0.79 nM).
For `COC(=O)CC[C@@H](O[C@@H]1O[C@@H]2O[C@@]3(C)CC[C@H]4[C@H](C)CCC([C@H]1C)[C@@]24OO3)c1ccc(Cl)cc1` (stereo not given in full), in that order: 0.629 ng/mL (≈ 1.27 nM) and 0.728 ng/mL (≈ 1.47 nM).
As for `C[C@@H]1CCC2[C@@H](C)[C@H](OC(CCC(=O)O)c3ccc(Br)cc3)O[C@@H]3OC4(C)CC[C@@H]1C23OO4` (stereo not given in full), the T/C in the assay on Mus musculus [3] came out at 5.8 days; with Mus musculus [5], 2.7 days; with Mus musculus [6], 3.5 days. Moreover, the half-maximal inhibitory concentration (IC50) in the assay on Plasmodium falciparum [1] was found to be 0.313 ng/mL (≈ 0.596 nM); with Plasmodium falciparum [2] it was 0.405 ng/mL (≈ 0.771 nM). This molecule yielded an SD50 in the assay filed under Mus musculus [4] of 16.26 mg/kg. The SD90 in the assay listed under Mus musculus [7] is 48.18 mg/kg.
`COC(=O)CCC(O[C@@H]1O[C@@H]2OC3(C)CC[C@H]4[C@H](C)CCC([C@H]1C)C24OO3)c1ccc(OC)cc1` (stereo not given in full): the IC50 was 0.647 ng/mL (≈ 1.32 nM) in the assay with Plasmodium falciparum [1] and 0.827 ng/mL (≈ 1.68 nM) with Plasmodium falciparum [2].
Turning to `C[C@H]1C(Oc2ccc(C(=O)[O-])cc2)O[C@@H]2O[C@]3(C)CC[C@H]4[C@H](C)CCC1C24OO3.[Na+]` (stereo not given in full), the T/C in the assay with Mus musculus [3] came out at 4.3 days; with Mus musculus [6] it was 2.7 days. The same molecule displayed an SD50 in the assay listed under Mus musculus [4] of 56 mg/kg.
As to `C[C@@H]1CCC2[C@@H](C)[C@H](OC(CCC(=O)O)c3ccc(F)cc3)O[C@@H]3OC4(C)CC[C@@H]1C23OO4` (stereo not given in full), the values for the T/C in the assay on Mus musculus [3], in the assay with Mus musculus [5] and with Mus musculus [6] were 3.3 days, 1.5 days and 2.8 days, respectively. Moreover, the 50% inhibitory concentration (IC50) in the assay with Plasmodium falciparum [1] is 1.34 ng/mL (≈ 2.88 nM); in the assay with Plasmodium falciparum [2], 2.21 ng/mL (≈ 4.76 nM). Further, the SD50 in the assay listed under Mus musculus [4] worked out at 28.16 mg/kg. Moreover, the SD90 in the assay listed under Mus musculus [7] is 58.07 mg/kg.
With `COc1ccc(C(CCC(=O)O)O[C@@H]2O[C@@H]3OC4(C)CC[C@H]5[C@H](C)CCC([C@H]2C)C35OO4)cc1` (stereo not given in full), the T/C is 4 days in the assay with Mus musculus [3], 1.7 days with Mus musculus [5] and 2.5 days with Mus musculus [6]. Besides, the half-maximal inhibitory concentration (IC50) stood at 3.45 ng/mL (≈ 7.24 nM) with Plasmodium falciparum [1] and 3.82 ng/mL (≈ 8.01 nM) in the assay with Plasmodium falciparum [2]. The same molecule registered an SD50 in the assay listed under Mus musculus [4] of 25.06 mg/kg. The molecule further showed an SD90 in the assay listed under Mus musculus [7] of 54.99 mg/kg.
As to `C[C@@H]1CCC2[C@@H](C)[C@@H](OC(CCC(=O)O)c3ccc(Cl)cc3)O[C@@H]3OC4(C)CC[C@@H]1C23OO4` (stereo not given in full), the values for the concentration for half-maximal inhibition (IC50) with Plasmodium falciparum [1] and with Plasmodium falciparum [2] were 1.26 ng/mL (≈ 2.62 nM) and 2.4 ng/mL (≈ 5 nM), respectively.
Turning to `COC(=O)CCC(O[C@@H]1O[C@@H]2OC3(C)CC[C@H]4[C@H](C)CCC([C@H]1C)C24OO3)c1ccc(Br)cc1` (stereo not given in full), the IC50 with Plasmodium falciparum [1] worked out at 0.543 ng/mL (≈ 1.01 nM); in the assay with Plasmodium falciparum [2], 0.673 ng/mL (≈ 1.25 nM).
Regarding `C[C@@H]1CCC2[C@@H](C)[C@@H](OC(CCC(=O)O)c3ccc(Br)cc3)O[C@@H]3OC4(C)CC[C@@H]1C23OO4` (stereo not given in full), the half-inhibitory concentration (IC50) was found to be 0.419 ng/mL (≈ 0.797 nM) in the assay on Plasmodium falciparum [1] and 1.36 ng/mL (≈ 2.59 nM) in the assay with Plasmodium falciparum [2].
As for `COC(=O)CCC(O[C@@H]1O[C@@H]2OC3(C)CC[C@H]4[C@H](C)CCC([C@H]1C)C24OO3)c1ccc(F)cc1` (stereo not given in full), the IC50 was found to be 0.398 ng/mL (≈ 0.832 nM) with Plasmodium falciparum [1] and 0.43 ng/mL (≈ 0.9 nM) in the assay on Plasmodium falciparum [2].
On to `C[C@@H]1CCC2[C@@H](C)[C@H](OC(CCC(=O)O)c3ccc(Cl)cc3)O[C@@H]3OC4(C)CC[C@@H]1C23OO4` (stereo not given in full), for which the values for the T/C with Mus musculus [3], in the assay on Mus musculus [8] and with Mus musculus [5] were 4.8 days, 3.8 days and 2.3 days, respectively. The concentration for half-maximal inhibition (IC50) in the assay with Plasmodium falciparum [1] stood at 0.357 ng/mL (≈ 0.742 nM); with Plasmodium falciparum [2] it was 0.38 ng/mL (≈ 0.79 nM). In the assay listed under Mus musculus [4], this molecule gave an SD50 of 14.39 mg/kg. This molecule also had an SD90 in the assay listed under Mus musculus [7] of 45.04 mg/kg.
Take `COC(=O)CCC(O[C@H]1O[C@@H]2OC3(C)CC[C@H]4[C@H](C)CCC([C@H]1C)C24OO3)c1ccc(Cl)cc1` (stereo not given in full): the IC50 turned out to be 0.794 ng/mL (≈ 1.6 nM) in the assay with Plasmodium falciparum [1] and 0.903 ng/mL (≈ 1.82 nM) in the assay with Plasmodium falciparum [2].
With `COC(=O)CCC(O[C@H]1O[C@@H]2OC3(C)CC[C@H]4[C@H](C)CCC([C@H]1C)C24OO3)c1ccc(Br)cc1` (stereo not given in full), the IC50 with Plasmodium falciparum [1] was 0.62 ng/mL (≈ 1.15 nM); in the assay on Plasmodium falciparum [2], 1.01 ng/mL (≈ 1.87 nM).
Take `COC(=O)CCC(O[C@H]1O[C@@H]2OC3(C)CC[C@H]4[C@H](C)CCC([C@H]1C)C24OO3)c1ccc(F)cc1` (stereo not given in full): the half-maximal inhibitory concentration (IC50) was 0.488 ng/mL (≈ 1.02 nM) in the assay on Plasmodium falciparum [1] and 0.616 ng/mL (≈ 1.29 nM) in the assay with Plasmodium falciparum [2].
Consider `C[C@@H]1CCC2[C@@H](C)[C@@H](OC(CCC(=O)O)c3ccc(F)cc3)O[C@@H]3OC4(C)CC[C@@H]1C23OO4` (stereo not given in full), for which the IC50 in the assay on Plasmodium falciparum [1] came to 0.828 ng/mL (≈ 1.78 nM); in the assay with Plasmodium falciparum [2], 2.33 ng/mL (≈ 5.02 nM).
For `C[C@@H]1CC[C@H]2[C@@H](C)C(=O)O[C@@H]3O[C@@]4(C)CC[C@@H]1[C@]32OO4` [ARTEMISININ], in that order: 2.14 ng/mL (≈ 7.57 nM) and 3.91 ng/mL (≈ 13.9 nM).
